“Also recorded” adds a separate entry of the source.
Tests used:
mammals = conditions: cited from earlier work; for neuronal toxicity: several months after the treatment
male Sprague-Dawley rats = test: Near infrared fluorescence (NIRF) imaging of lymph nodes after penile intracavernous ICG injection; format: in vivo, rat
Procedure: Twenty two 22 male Sprague-Dawley rats received penile intracavernous ICG injections (20 μl of 0.25 mg/ml). […] A Novadaq intraoperative NIRF imaging system (SPY®) was used for macroscopic fluorescence imaging and an Olympus NIRF microscope IX 70 (Olympus America, Inc., Center Valley, Pa.) was used for histology. All animals were anesthetized and shaved before imaging. All visualized nodes were sent for NIR microscopy and haematoxylin and eosin (H&E) staining for histological examination.
More than one pair of sentinel lymph nodes were visualized in 2 rats. […] Lymphatic channels were seen leading to sentinel lymph nodes at 6, 12 and 24 hours (FIG. 1). […] (FIG. 1). […] Thus, NIR fluorescence using ICG facilitates both pre- and intraoperative identification of the first site of penile lymphatic drainage. The methods of the invention should therefore improve the accuracy of surgical staging in patients with penile carcinomas.

[1] = cited from earlier work
[2] = 806 nm excitation light; cited from earlier work

## N=C(N)c1ccc(/C=C/c2ccc(C(=N)N)cc2O)cc1 [Fluorogold]
mammals
  toxicity in mammals: low evidence of toxicity
  neuronal toxicity: without evidence of neuronal toxicity

## CC1(C)C(/C=C/C=C/C=C/C=C2\N(CCCCS(=O)(=O)[O-])c3ccc4ccccc4c3C2(C)C)=[N+](CCCCS(=O)(=O)[O-])c2ccc3ccccc3c21.[Na+] [indocyanine green (ICG)]
Male Sprague-Dawley rats; animal model
  shortest time after injection to ability to visualize the lymph nodes: 10 min

## Fast Blue
mammals
  toxicity in mammals: low evidence of toxicity
  neuronal toxicity: without evidence of neuronal toxicity

## CC1(C)C(/C=C/C=C/C=C/C=C2\N(CCCCS(=O)(=O)O)c3ccc4ccccc4c3C2(C)C)=[N+](CCCCS(=O)(=O)[O-])c2ccc3ccccc3c21 [ICG, indocyanine green]
[1]; in vivo
  enterohepatic recirculation: does not undergo enterohepatic recirculation
  metabolism in the body: not metabolized
  reabsorption from the intestine: not reabsorbed
  route of excretion: excreted exclusively by the liver
[1]; normal vascular permeability
  distribution after intravenous injection: remains intravascular
Male Sprague-Dawley rats; 6, 12 and 24 hours post-injection
  lymphatic channels leading to sentinel lymph nodes: seen
Male Sprague-Dawley rats; animal studies
  how long lymph nodes could be seen through the body wall after injection: for days
Male Sprague-Dawley rats; rats
  confirmation of lymph nodes by NIR microscopy and conventional histology: All lymph nodes were confirmed
  visualization of inguinal and iliac sentinel lymph nodes with NIRF: clearly visualized
Male Sprague-Dawley rats; rats, intraoperative NIRF
  intraoperative confirmation of preoperative localization of inguinal nodes: confirmed the preoperative localization of the inguinal nodes; also recorded: confirmed preoperative localization of all inguinal nodes
mammals
  toxicity in mammals: low evidence of toxicity
  neuronal toxicity: without evidence of neuronal toxicity
[2]
  emitted light wavelength: 830 nm

— patent publication US10434190B2, “Pre-and-intra-operative localization of penile sentinel nodes” (NOVADAQ TECHNOLOGIES ULC, priority 2006, dated 2019)
